The source of these data is patent US20230212120A1, “SMALL MOLECULE INHIBITORS OF GRK5 AND GRK5 SUBFAMILY MEMBERS AND USES THEREOF” (The Regents of the University of Michigan, priority 2020, published 2023).

The IC50 is the concentration that gives 50% inhibition. One may read the solubility (thermodynamic) as solubility found after equilibrating the solid with the medium.

SMILES strings stand for the structures. In brackets after ≈: the same amount, converted by molar mass. Several values for one entry are separate records, joined by “and”; a condition that tells them apart may be missing. Equal entries are not always repeated. Where two headings read alike, the source gives them in different places.

The target of series [1] is T1, bovine GRK2 (Bos taurus, UniProt P21146).
T1 sequence (P21146 1-689): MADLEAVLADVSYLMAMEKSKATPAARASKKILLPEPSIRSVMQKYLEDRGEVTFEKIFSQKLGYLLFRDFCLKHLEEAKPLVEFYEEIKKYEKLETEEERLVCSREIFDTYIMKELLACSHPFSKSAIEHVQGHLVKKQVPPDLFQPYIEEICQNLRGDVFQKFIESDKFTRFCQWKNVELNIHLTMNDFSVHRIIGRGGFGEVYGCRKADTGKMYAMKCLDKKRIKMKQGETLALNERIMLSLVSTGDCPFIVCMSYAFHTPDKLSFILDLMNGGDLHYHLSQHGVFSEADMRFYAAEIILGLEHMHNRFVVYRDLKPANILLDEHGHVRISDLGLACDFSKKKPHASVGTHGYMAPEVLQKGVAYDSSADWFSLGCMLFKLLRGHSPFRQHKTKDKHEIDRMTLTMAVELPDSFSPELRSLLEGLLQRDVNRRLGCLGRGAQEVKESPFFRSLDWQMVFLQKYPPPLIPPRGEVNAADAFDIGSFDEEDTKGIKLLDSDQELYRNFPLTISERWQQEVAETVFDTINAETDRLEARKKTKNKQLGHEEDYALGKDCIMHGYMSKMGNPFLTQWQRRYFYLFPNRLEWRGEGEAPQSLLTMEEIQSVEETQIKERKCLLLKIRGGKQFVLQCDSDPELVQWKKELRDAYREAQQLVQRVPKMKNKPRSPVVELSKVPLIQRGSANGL
Nature of the series: radiometric GRK2 inhibition assay (tubulin phosphorylation).

Series [2] in a line: Thermodynamic solubility (Analiza Inc.). Type of series: physicochemical. Conditions: for solubility thermodynamic / pH After Assay: Water; for solubility thermodynamic: n=1; for pH After Assay: solubility assay. The text has this:
Experimental data collected by Analiza Inc. Experimental values represent an average of n=1 experiments.

The target of series [3] is PKA (Homo sapiens, UniProt P17612). As to the kind of experiment: PKA inhibition assay (ADP-Glo). It is filed as biochemical. The protocol: The PKA inhibition assays were performed with the ADP-Glo system (Promega Corporation) according to the manufactory's instruction. […] After the initial reaction, ADP-Glo reagent was added to the reaction and allowed to incubate for an additional 40 min. Lastly, the kinase detection reagent was added and allowed to incubate for 30 min, and the luminescence was measured with a FlexStation 3 Multi-mode Microplate Reader (Molecular Devices). All data was analyzed in the same way as GRK inhibition assay. Experiments were performed three times in duplicate.
Standard control compounds are run during each assay to assess consistency across time, experimenters, and subtle changes in assay conditions that are sometimes required to keep some of the compounds soluble and disperse (such as through addition of DDM or 3% DMSO). Paroxetine were used as controls for GRK2 and PKA, and CCG215022 for GRK5.

Series [4] addresses GRK5 (Homo sapiens, UniProt P34947). Nature of the series: radiometric GRK5 inhibition assay (tubulin phosphorylation).
The mark [5] stands for this setting: read-out: GRK2 IC50, Table 2, μM ± SD.
The mark [6] stands for this setting: read-out: GRK2 IC50, Table 1, μM ± SD.

Sequence of GRK5 (P34947 whole entry): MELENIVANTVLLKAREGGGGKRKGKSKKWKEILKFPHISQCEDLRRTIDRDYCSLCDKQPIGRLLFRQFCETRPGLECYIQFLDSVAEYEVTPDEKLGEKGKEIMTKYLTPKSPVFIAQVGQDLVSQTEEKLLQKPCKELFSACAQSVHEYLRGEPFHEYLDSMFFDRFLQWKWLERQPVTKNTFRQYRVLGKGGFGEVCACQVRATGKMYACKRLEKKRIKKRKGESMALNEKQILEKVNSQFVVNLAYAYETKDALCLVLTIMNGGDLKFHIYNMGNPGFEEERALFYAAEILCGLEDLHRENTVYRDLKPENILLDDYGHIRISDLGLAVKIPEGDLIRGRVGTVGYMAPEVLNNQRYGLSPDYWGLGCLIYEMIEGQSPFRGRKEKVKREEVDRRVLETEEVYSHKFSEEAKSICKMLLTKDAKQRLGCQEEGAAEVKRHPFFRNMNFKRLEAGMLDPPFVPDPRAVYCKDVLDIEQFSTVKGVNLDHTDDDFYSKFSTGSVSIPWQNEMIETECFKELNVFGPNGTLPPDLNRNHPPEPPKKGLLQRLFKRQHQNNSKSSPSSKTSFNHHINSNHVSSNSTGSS

`Cc1[nH]c(/C=C2\C(=O)Nc3ccc(C(=O)N[C@H](C)c4ccccn4)cc32)c(C)c1NC(=O)CCl` [Compound 9l, (R,Z)-3-((4-(2-chloroacetamido)-3,5-dimethyl-1H-pyrrol-2-yl)methylene)-2-oxo-N-(1-(pyridin-2-yl)ethyl)indoline-5-carboxamide]: in series [1] (setting [5]), the IC50 amounted to 9.6 ± 5 µM. Moreover, in series [2], the thermodynamic solubility was 262 µM (≈ 125 µg/mL) and the “pH After Assay” value turned out to be 4.

Take `C=CCNC(=O)c1c(C)[nH]c(/C=C2\C(=O)Nc3ccc(C(=O)N[C@H](C)c4ccccc4)cc32)c1C` [Compound 5d, (R,Z)-3-((4-(allylcarbamoyl)-3,5-dimethyl-1H-pyrrol-2-yl)methylene)-2-oxo-N-(1-phenylethyl)indoline-5-carboxamide]: the IC50 in series [3] (Table 1, μM ± SD) is > 250 µM; in series [1] (setting [6]), 22 ± 10 µM.

Consider `Cc1[nH]c(/C=C2\C(=O)Nc3ccc(C(=O)N[C@H](C)c4cccc(Cl)c4)cc32)c(C)c1NC(=O)CCl` [Compound 9m, (R,Z)-3-((4-(2-chloroacetamido)-3,5-dimethyl-1H-pyrrol-2-yl)methylene)-N-(1-(3-chlorophenyl)ethyl)-2-oxoindoline-5-carboxamide], for which the IC50 in series [3] (Table 2, μM ± SD) is > 250 µM; in series [1] (setting [5]), 19 ± 10 µM.

In the case of `CC1=C(C(=O)Nc2ccc3[nH]ncc3c2)C(c2ccc(F)c(C(=O)NCc3ccccn3)c2)NC(=O)N1` (centres unmarked) [CCG 215022, reference compound], the IC50 in series [3] (Table 1, μM ± SD) was > 250 µM.

Turning to `CCN(CC)CCNC(=O)c1c(C)[nH]c(/C=C2\C(=O)Nc3ccc(C(=O)N[C@H](C)c4ccccc4)cc32)c1C` [Compound 5a, (R,Z)-3-((4-((2-(diethylamino)ethyl)carbamoyl)-3,5-dimethyl-1H-pyrrol-2-yl)methylene)-2-oxo-N-(1-phenylethyl)indoline-5-carboxamide], the IC50 in series [3] (Table 1, μM ± SD) was > 250 µM; in series [1] (setting [6]), 1.1 ± 0.7 µM.

In the case of `Cc1[nH]c(/C=C2\C(=O)Nc3ccc(C(=O)N[C@H](C)c4ccccc4)cc32)c(C)c1NC(=O)CCl` [Compound 9e, (R,Z)-3-((4-(2-chloroacetamido)-3,5-dimethyl-1H-pyrrol-2-yl)methylene)-2-oxo-N-(1-phenylethyl)indoline-5-carboxamide], the IC50 in series [3] (Table 1, μM ± SD) was > 250 µM; in series [1] (setting [6]), 350 ± 100 µM. For the same compound, in series [2], the “pH After Assay” value is 5. Moreover, the solubility (thermodynamic) in series [2] (thermodynamic from solid) was 75.1 µM and 35.7 µg/mL.

Take `Cc1[nH]c(/C=C2\C(=O)Nc3ccc(C(=O)N[C@H](C)c4ccccc4)cc32)c(C)c1NC(=O)/C=C/CN(C)C` [Compound 9f, (Z)-3-((4-((E)-4-(dimethylamino)but-2-enamido)-3,5-dimethyl-1H-pyrrol-2-yl)methylene)-2-oxo-N—((R)-1-phenylethyl)indoline-5-carboxamide]: the IC50 in series [1] (setting [6]) worked out at 17 ± 10 µM. The “pH After Assay” value in series [2] is listed as 5. Further, the thermodynamic solubility in series [2] (thermodynamic from solid) was 125 µM and 64 µg/mL.

As for `Cc1[nH]c(/C=C2\C(=O)Nc3ccc(C(=O)N[C@H](C)c4ccccc4)cc32)c(C)c1NC(=O)C1CO1` (stereo partly drawn) [Compound 10l, (Z)-3-((3,5-dimethyl-4-(oxirane-2-carboxamido)-1H-pyrrol-2-yl)methylene)-2-oxo-N—((R)-1-phenylethyl)indoline-5-carboxamide], the IC50 in series [1] is > 250 µM.

Consider `Cc1[nH]c(/C=C2\C(=O)Nc3ccc(C(=O)N[C@H](C)c4ccccc4)cc32)c(C)c1NC(=O)/C(C#N)=C/C(C)(C)C` [Compound 10a, (Z)-3-((4-((E)-2-cyano-4,4-dimethylpent-2-enamido)-3,5-dimethyl-1H-pyrrol-2-yl)methylene)-2-oxo-N—((R)-1-phenylethyl)indoline-5-carboxamide], for which the IC50 in series [1] (setting [6]) amounted to 120 ± 80 µM.

Turning to `Cc1[nH]c(/C=C2\C(=O)Nc3ccc(C(=O)NC4(c5ccccc5)COC4)cc32)c(C)c1NC(=O)CCl` [Compound 9t, (Z)-3-((4-(2-chloroacetamido)-3,5-dimethyl-1H-pyrrol-2-yl)methylene)-2-oxo-N-(3-phenyloxetan-3-yl)indoline-5-carboxamide], the IC50 came out at 69 ± 10 µM in series [3] (Table 2, μM ± SD) and 15 ± 7 µM in series [1] (setting [5]).

Regarding `Cc1[nH]c(/C=C2\C(=O)Nc3ccc(C(=O)N[C@H](C)c4ccccc4)cc32)c(C)c1NC(=O)C(O)CCl` (stereo partly drawn) [Compound 9h, (Z)-3-((4-(3-chloro-2-hydroxypropanamido)-3,5-dimethyl-1H-pyrrol-2-yl)methylene)-2-oxo-N—((R)-1-phenylethyl)indoline-5-carboxamide], the IC50 was > 250 µM in series [3] (Table 1, μM ± SD) and 6.7 ± 5 µM in series [1] (setting [6]).

Turning to `Cc1[nH]c(/C=C2\C(=O)Nc3ccc(C(=O)N[C@H](C)c4ccccc4)cc32)c(C)c1[N+](=O)[O-]` [Compound 7a, (R,Z)-3-((3,5-dimethyl-4-nitro-1H-pyrrol-2-yl)methylene)-2-oxo-N-(1-phenylethyl)indoline-5-carboxamide], the IC50 in series [1] (setting [6]) came to 7.2 ± 3 µM.

For `Cc1[nH]c(/C=C2\C(=O)Nc3ccc(C(=O)N[C@H](C)c4ccc(Cl)cc4)cc32)c(C)c1NC(=O)CCl` [Compound 9o, (R,Z)-3-((4-(2-chloroacetamido)-3,5-dimethyl-1H-pyrrol-2-yl)methylene)-N-(1-(4-chlorophenyl)ethyl)-2-oxoindoline-5-carboxamide], the IC50 in series [1] (setting [5]) was determined as 0.7 ± 0.2 µM. Further, in series [2], the “pH After Assay” value came out at 4. For the same compound, the solubility (thermodynamic) in series [2] (thermodynamic from solid) was 205 µM and 105 µg/mL.

For `C=CC(=O)Nc1c(C)[nH]c(/C=C2\C(=O)Nc3ccc(C(=O)N[C@H](C)c4ccccc4)cc32)c1C` [Compound 9b, (R,Z)-3-((4-acrylamido-3,5-dimethyl-1H-pyrrol-2-yl)methylene)-2-oxo-N-(1-phenylethyl)indoline-5-carboxamide], the IC50 in series [1] (setting [6]) stood at 87 ± 30 µM.

Consider `C=CS(=O)(=O)Nc1c(C)[nH]c(/C=C2\C(=O)Nc3ccc(C(=O)N[C@H](C)c4ccccc4)cc32)c1C` [Compound 9c, (R,Z)-3-((3,5-dimethyl-4-(vinylsulfonamido)-1H-pyrrol-2-yl)methylene)-2-oxo-N-(1-phenylethyl)indoline-5-carboxamide], for which the IC50 in series [1] (setting [6]) is 280 ± 110 µM.

For the compound `Cc1[nH]c(/C=C2\C(=O)Nc3ccc(C(=O)N[C@H](C)c4ccc(F)cc4)cc32)c(C)c1NC(=O)CBr` [Compound 9p, (R,Z)-3-((4-(2-bromoacetamido)-3,5-dimethyl-1H-pyrrol-2-yl)methylene)-N-(1-(4-fluorophenyl)ethyl)-2-oxoindoline-5-carboxamide], in series [1] (setting [5]), the IC50 is 3.6 ± 2 µM.

On to `Cc1[nH]c(/C=C2\C(=O)Nc3ccc(C(=O)N[C@H](C)c4ccncc4)cc32)c(C)c1NC(=O)CCl` [Compound 9k, (R,Z)-3-((4-(2-chloroacetamido)-3,5-dimethyl-1H-pyrrol-2-yl)methylene)-2-oxo-N-(1-(pyridin-4-yl)ethyl)indoline-5-carboxamide], for which the IC50 in series [1] (setting [5]) stood at 1.7 ± 2 µM. Moreover, the “aqueous solubility relative to 9e” value in series [2] (compared to 9e) is listed as “less than 2 fold”.

With `CCN(CC)CCNC(=O)c1c(C)[nH]c(/C=C2\C(=O)Nc3ccc(C(=O)N[C@@H](C)c4ccccc4)cc32)c1C` [Compound 5b, (S,Z)-3-((4-((2-(diethylamino)ethyl)carbamoyl)-3,5-dimethyl-1H-pyrrol-2-yl)methylene)-2-oxo-N-(1-phenylethyl)indoline-5-carboxamide], in series [1] (setting [6]), the IC50 amounted to 44 ± 18 µM.

`Fc1ccc([C@@H]2CCNC[C@H]2COc2ccc3c(c2)OCO3)cc1` [paroxetine, reference compound] registered an IC50 in series [3] (Table 1, μM ± SD) of 850 ± 400 µM.

With `Cc1ccc([C@@H](C)NC(=O)c2ccc3c(c2)/C(=C/c2[nH]c(C)c(NC(=O)CCl)c2C)C(=O)N3)cc1` [Compound 9n, (R,Z)-3-((4-(2-chloroacetamido)-3,5-dimethyl-1H-pyrrol-2-yl)methylene)-2-oxo-N-(1-(p-tolyl)ethyl)indoline-5-carboxamide], in series [1] (setting [5]), the IC50 came out at 2.1 ± 1 µM. Moreover, in series [4] (Table 2, ratio of IC50 values), the GRK2/GRK5 is 3. Besides, the “pH After Assay” value in series [2] was 2.5. Besides, in series [2] (thermodynamic from solid), the solubility (thermodynamic) is 252 µM and 124 µg/mL.

Consider `C=CCCNC(=O)c1c(C)[nH]c(/C=C2\C(=O)Nc3ccc(C(=O)N[C@H](C)c4ccccc4)cc32)c1C` [Compound 5f, (R,Z)-3-((4-(but-3-en-1-ylcarbamoyl)-3,5-dimethyl-1H-pyrrol-2-yl)methylene)-2-oxo-N-(1-phenylethyl)indoline-5-carboxamide], for which the IC50 was 630 ± 200 µM in series [1] (setting [6]) and 1.9 ± 0.05 µM in series [4]. Further, the GRK2/GRK5 in series [4] (Table 1, ratio of IC50 values) worked out at 330.
